The data set in a line: Malvern laser diffraction particle sizing. It counts as physicochemical. The following applies: Malvern Mastersizer X; dispersant iso octane/lecithin 0.05% w/w; sonicated 3 minutes; one analysis per sample. The protocol:
Particles of Examples 1A and 1B were analysed using Malvern laser diffraction particle sizing. Instrument: Malvern Mastersizer X Lens: 45 mm Reverse Fourier Analysis: 0607 presentation code Dispersant: Iso Octane/Lecithin 0.05% w/w Pre dispersion: Sonicate for 3 minutes Obscuration: 10% to 16% One analysis per sample was carried out. The median particle size (D50), particle size at 90% undersize (D90) and particle size at 10% undersize (D10) were used as responses to characterise the medium, course, and fine particles.

Molecules are shown by their SMILES.

Take `CCC(=O)O[C@]1(C(=O)SCF)[C@H](C)C[C@H]2[C@@H]3C[C@H](F)C4=CC(=O)C=C[C@]4(C)[C@@]3(F)[C@@H](O)C[C@@]21C` [Example 1B, fluticasone propionate]: the “D10 (particle size at 10% undersize)” value came to 1.77 μm, the “D50 (median particle size)” value is recorded as 3.65 μm and the “D90 (particle size at 90% undersize)” value was 7.24 μm.
The corresponding values for `CCC(=O)O[C@]1(C(=O)SCF)[C@H](C)C[C@H]2[C@@H]3C[C@H](F)C4=CC(=O)C=C[C@]4(C)[C@@]3(F)[C@@H](O)C[C@@]21C` [Example 1A, fluticasone propionate] are 1.01 μm, 2.68 μm and 5.93 μm.

These data come from US20040045805A1, “Novel process for preparing and harvesting crystalline particles” (priority 2000, published 2004).
